Columns and labels:
EV-A71 [1] = assay: Viral load reduction assay in RD cells (RT-qPCR, TCID50, VP1 Western blot); format: cell-based, Human enterovirus A71; conditions: MOI 0.1, 24 h
Description: Detection of cellular mRNA expression and viral load was performed as described previously ([24]). In brief, the infected or mock-infected cells were lysed and applied to total RNA extraction by using the MiniBEST Universal RNA Extraction Kit (TaKaRa, Code No.9767). Viral RNA in the supernatant was extracted with the MiniBEST Viral RNA Extraction Kit (TaKaRa, Code No.9766). Reverse transcription was performed using the PrimeScript RT reagent Kit (TaKaRa, Code No.PR037A) with an oligo (dT) primer. The resultant cDNAs were used for qPCR assay with the Light Cycler 480 SYBR Green I Master Mix (Roche) to measure the mRNA expression level of cellular genes or viral load in supernatants. The relative viral gene copy was determined by RT-qPCR, using GAPDH as an internal reference.
The viral titer in the indicated samples was determined by TCID50 assay as described previously ([25]). Briefly, serially diluted samples from 10^−1 to 10^−8 in DMEM were inoculated to RD cells, BGMK cells, or MRC-5 in 96‐well plates. The cells were then incubated for 2 to 3 days at 37°C. TCID50 was calculated by counting the wells with cytopathic effect in infected cells using the Reed–Muench method.
Western blot analysis was performed as described previously ([26]). In brief, the indicated cell samples were lysed in RIPA buffer supplemented with protease inhibitors (Thermo Fisher Scientific, 78430). The cell lysates were then separated in 10% SDS-PAGE and transferred to a 0.45-µm nitrocellulose membrane. After blocking, the membrane was incubated with an against VP1 antibody (GeneTex, GTX132339), VEGFR1 antibody (Abcam, ab32152), VEGFR2 antibody (Abcam, ab134191), phosphorylated VEGFR2 antibody (Tyr951) (CST 4991), VEGFR3 antibody (Beyotime, AF6918), Akt antibody (CST 4685), phosphorylated Akt antibody (CST 4060), or GAPDH antibody (GeneTex, GTX627408) diluted 1:5,000 in primary antibody dilution buffer overnight at 4°C, followed by corresponding secondary staining. The blots were visualized by western horseradish peroxidase substrate and imaged with Gel Doc XR+.
The results represent cell viability in the EV-A71-infected RD cells or 2D human intestinal organoids treated with DMSO (Negative control), Pirodavir (Positive control), or indicated VEGFR inhibitor (10 µM) relative to those in mock-infected RD cells or 2D human intestinal organoids. […] Significant inhibition of EV-A71 infection was found for both cell lysate (left) and supernatant (right) using RT-qPCR analysis. The results represent the viral load in the cells treated with indicated inhibitors relative to that in DMSO-treated cells. (C) Viral titer was also determined for inhibitor-treated samples in TCID50 assays. […] (D) Representative images of immunofluorescence assay for selected inhibitors using Rabbit anti‐VP1 antibody (green). Nuclei are counterstained with DAPI (blue). Scale bar, 50 µm.
Nuclei are counterstained with DAPI (blue). Scale bar, 50 µm.
Fig. S2. […] The results represent the viral load in the cells treated with indicated concentration of VEGFR inhibitors relative to that in DMSO-treated cells. Viral titer was also determined for samples treated with indicated concentrations of VEGFR inhibitors in TCID50 assays.
Fig. S7. Viral reduction in RD cells with Src inhibitor treatment. […] Significant inhibition of EV-A71 infection was found for both cell lysate (left) and supernatant (middle) using RT-qPCR analysis. The results represent the viral load in the cells treated with Dasatinib relative to that in DMSO-treated cells. Viral titer was also determined for inhibitor-treated samples in TCID50 assays (right). […] (C) VP1 protein levels were measured for samples treated with DMSO or Dasatinib using western blotting.
Fig. S8. Viral reduction in RD cells with Akt inhibitor treatment. […] Significant inhibition of EV-A71 infection was found for both cell lysate (left) and supernatant (middle) using RT-qPCR analysis. […]

EV-A71 [2] = assay: Flow cytometry of VP1-positive EV-A71-infected RD cells; format: cell-based, Human enterovirus A71; conditions: 10 μM, MOI 2, 6 and 9 hpi
Description: Flow cytometry analysis was performed according to the standard protocol as described previously ([28]). In brief, the infected or mock-infected RD cells were dissociated with 10 mM EDTA and then fixed with 4% paraformaldehyde for 30 min. After permeabilization, the cells were incubated with rabbit anti‐VP1 antibody (GeneTex, GTX132339), followed by labeling with FITC-conjugated goat anti-rabbit IgG (Beyotime, P0176). Flow cytometry analysis was performed using a BD Fortessa flow cytometer (BD Biosciences), and the data were analyzed using FlowJo v.10 (Tree Star, USA).
Fig. S4. […] Then the infected- and mock-infected RD cells were fixed, labeled, and applied to flow cytometry to evaluate the percentage of VP1-positive cells at 0, 3, 6 and 9 hpi. […] Mean and SD of three independent experiments are presented (B and C). *p < 0.05; **p < 0.01.

[3] = CellTiter-Glo luminescent cell viability assay (cytotoxicity); conditions: human, RD cells
Description: Fig. S1. (A) RD cells were treated with the indicated concentrations of inhibitors and incubated at 37°C for 24 h. CellTiter‐Glo® luminescent cell viability assay was used to measure the CC50 of selected inhibitors. […] (B) RD cells treated with the selected inhibitors (10 μM) were inoculated with EV-A71 at an MOI of 0.01. At 48 hpi, cells were harvested to detect the expression level of VP1 by western blotting.

EV-A71 [4] = assay: EV-A71 replication in multiple cell types (293T, Vero-E6, Huh7, HepG2, HT-29, Caco2); format: cell-based, Human enterovirus A71; conditions: Vero-E6, Huh7, HepG2 (MOI 1), HT-29, Caco2 (MOI 2), 24 hpi
EV-A71 [5] = assay: Multi-cycle virus growth assay in RD cells (TCID50); format: cell-based, Human enterovirus A71; conditions: 10 µM, MOI 0.01, entire time-course
Description: RD cells were infected with EV‐A71 at an MOI of 0.01. Viral titers in cell culture supernatants were quantified by TCID50 assay at indicated time points. […] RD cells were infected with EV‐A71 at an MOI of 1. […] At 12 hpi, the cells were lysed for detecting mRNA expression levels of proinflammatory cytokines and chemokines. IL-6, interleukin 6; IL-8, interleukin 8; TNF-α, tumor necrosis factor-α.

VEGFR1 = tested on: VEGFR1; design: method as in PMID 17620431; conditions: cited from earlier work
EV-A71 [6] = assay: Virus attachment/entry assay in RD cells; format: cell-based, Human enterovirus A71; conditions: 10 µM, MOI 5
Description: After 2 hpi, the infectious inoculum was removed, and cell lysates were collected. The intracellular viral RNA load was then determined using RT-qPCR analysis. […] The cell lysates were then collected to detect the intracellular viral gene copy by RT-qPCR analysis.
Fig. S5. […] (A) EV-A71 inactivation assay. […] (B) EV-A71 attachment assay. […] After 2 hpi, the infectious inoculum was removed and cells were washed again. The intracellular viral RNA load was then determined using RT-qPCR analysis. (C) EV-A71 entry assay.

Cc1ccc(Nc2nccc(N(C)c3ccc4c(C)n(C)nc4c3)n2)cc1S(N)(=O)=O [Pazopanib]
EV-A71 structural protein VP1 expression, dose dependence (Western blot) (EV-A71 [1]; indicated concentrations): dose-dependent inhibition
EV-A71 viral load and viral titer, dose dependence (EV-A71 [1]; indicated noncytotoxic concentrations): markedly reduced
percentage of EV-A71-infected RD cells (EV-A71 [2]): markedly decreased
CC50 at 24 h [3]: 226 ± 27.6 µM
EV-A71 replication in cell culture supernatants of multiple cell types (EV-A71 [4]): significantly reduced
decrease of viral titers in the cell supernatant vs DMSO (EV-A71 [5]): over 4 logs
IC50 (VEGFR1): 10 nM
effect on viral attachment/entry (EV-A71 mRNA levels in cell lysates) (EV-A71 [6]): did not affect the viral attachment/entry stage
